The text below walks through data of US20230172940A1, “METHODS OF EXTENDING LIFESPAN BY ADMINISTERING FERROPTOSIS INHIBITORS” (COLLABORATIVE MEDICINAL DEVELOPMENT, LLC, priority 2020, published 2023).

The test system of test [1] is OP50 E. coli. Description: Bacterial growth assay (OD600). The class given is cell-based, Escherichia coli. The settings on record: 50 or 100 μg/mL; after 12 hours, 37° C. On the procedure: The effects of test compounds on growth of the OP50 E. coli feed was assayed using optical density at 600 nm (OD600). Using standard microtitre plates, replicate wells of 200 μL of sterile Luria broth were inoculated with 2 μL of an overnight OP50 culture in addition to the stated final concentrations of ampicillin (Amp), Lip-1 and SIH. OD600 measures were taken after 12 hours in an EnSpire (PerkinElmer) spectrophotometric plate reader preset to 37° C., with 30 sec of 200 rpm orbital shaking every 10 minutes.
Data was averaged across duplicate experiments, each with eight replicate wells per treatment where a baseline of Luria broth without an inoculate was subtracted.

Test [2] deals with C. elegans strain TJ1060. Description: Lifespan determination. The class given is in vivo, Caenorhabditis elegans. The settings on record: alternative ferroptosis inhibitor. On the procedure:
Lifespan was measured using established protocols. SIH was dissolved in neat dimethyl sulfoxide (DMSO; Sigma-Aldrich) then added to the molten NGM at 55° C. (to a final concentration of 250 μM SIH in 0.5% v/v DMSO). Lip-1 was dissolved in neat DMSO then added to the molten NGM at 55° C. (to a final concentration of 200 μM Lip-1 in 0.5% v/v DMSO). Media containing equivalent vehicle alone (0.5% v/v DMSO) was used for comparison. Standard overnight culture of the Escherichia coli (E. coli) strain OP50 was used as the food source.
Lifespan data was collected at 25 (±1) ° C. using the temperature sensitive-sterile strain TJ1060 [spe-9(hc88); fer-15(b26)]. A synchronous population was obtained by transferring egg-laying adults to fresh plates at 16° C. for 2-3 hours. The adults were removed and the plates with eggs then transferred to 25° C. to ensure sterility. After 48 hours at 25° C., when worms were at the late L4/young adult stage, 25-35 nematodes were transferred to fresh plates containing either vehicle control, 250 μM SIH, or 200 μM Lip-1. All plates were coded to allowing blinding of the experimenter to the treatment regime during scoring. Nematodes were scored for survival at one to three-day intervals and transferred to freshly prepared plates as needed (2-5 days).
It is well documented that differences are observed between independent measures of lifespan, with micro-environmental factors such as minor temperature fluctuations potentially resulting differences in median and maximum lifespan between replicates. After determining the optimal doses of 250 μM SIH and 200 μM Lip-1, respectively, cohorts of nematodes were compared in 8 independent replicates. As the number of worms measured is known to influence the likelihood of accurately observing differences in lifespan, the starting populations for all treatments within experiments were in excess of 70 individuals.

Test [3] relates to C. elegans. The settings on record: iron chelators, literature reports; cited from earlier work.
Test [4] has as its system RSL3. Description: IC50 (RSL3), Table 1. It counts as cell-based.

As to `CC1(C)S[C@@H]2[C@H](NC(=O)[C@H](N)c3ccccc3)C(=O)N2[C@H]1C(=O)O` [ampicillin], the “growth of OP50 E. coli (OD600)” value in test [1] is given as “completely suppressed bacterial growth”.

Regarding `CCOC(=O)c1ccc(NC2CCCCC2)c(N)c1` [ferrostatin], in test [2], the median lifespan extension result is “significant but more modest median lifespan extension”.

With `O=C(O)CN(CCN(CC(=O)O)CC(=O)O)CC(=O)O.[Ca]` [CaEDTA, calcium-ethylenediaminetetraacetic acid], the “effect on C. elegans lifespan as reported” value in test [3] is listed as “minor (undisclosed) increase in lifespan”.

Consider `Cc1c(O)c(=O)ccn1C` [deferiprone], for which the “effect on C. elegans lifespan as reported” value in test [3] was “not to impact C. elegans lifespan”.

`CCCCCc1nc2c(c(NC3CCCC3)n1)NC(C)(C)CC2` [Compound B-917, N-cyclopentyl-6,6-dimethyl-2-pentyl-5H,6H,7H,8H-pyrido[3,2-d]pyrimidin-4-amine]: in test [4], the half-maximal inhibitory concentration (IC50) (commonly the concentration that inhibits the measured activity by half) was above 3000 nM.

On to `CCC(C)Nc1ccc(-c2ccncc2)nc1NC(C)(C)C` (stereo not drawn) [Compound P-22], for which the IC50 in test [4] is 1 nM.

Molecule `CCC/C=C/c1nc(NC2CCCC2)c2c(n1)SCC(=O)N2` [Compound B-600, 4-(cyclopentylamino)-2-[(1E)-pent-1-en-1-yl]-5H,6H,7H-pyrimido[4,5-b][1,4]thiazin-6-one] showed a half-maximal inhibitory concentration (IC50) in test [4] of at least 3000 nM.

Consider `CCCCCc1nc(NC2CCCC2)c2c(n1)SCCN2` [Compound B-601, N-cyclopentyl-2-pentyl-5H,6H,7H-pyrimido[4,5-b][1,4]thiazin-4-amine], for which the IC50 in test [4] was 3 nM.

In turn, `CCC(C)Nc1ccc(-c2ccc(OC)cc2)nc1NC1CCCC1` (stereo not drawn) [Compound H-86, N^2-cyclopentyl-6-(4-methoxyphenyl)-N^3-sec-butyl-pyridine-2,3-diamine] showed an IC50 in test [4] of 8 nM.

Regarding `CCCCCc1nc(NC2CCCC2)c2c(n1)S(=O)(=O)CCN2` [Compound B-602, N-cyclopentyl-8,8-dioxo-2-pentyl-6,7-dihydro-5H-pyrimido[4,5-b][1,4]thiazin-4-amine], in test [4], the 50% inhibitory concentration (IC50) is at least 3000 nM.

In test [4], `CCCCC(=O)c1cc2c(c(OC3CCCC3)c1)NCCC2` [Compound Q-980, 1-[8-(cyclopentoxy)-1,2,3,4-tetrahydroquinolin-6-yl]pentan-1-one] displayed an IC50 above 3000 nM.

On to `CCCCCc1ccc(NC(C)CC)c(NC2CCCC2)n1` (stereo not drawn) [Compound H-72, N^2-cyclopentyl-6-pentyl-N^3-sec-butyl-pyridine-2,3-diamine], for which the half-maximal inhibitory concentration (IC50) in test [4] was found to be 6 nM.
